{"source": "patent US20050163814A1", "about": "“Granulated phosphoroamido(di) thioates” (priority 2002, published 2005)", "format_in_all_cases": "physicochemical", "key": {"[1]": {"assay": "GE Brightness of acephate powder", "conditions": "bulk powder, reflected light", "method": "A sample of technical grade acephate crystals was obtained (Examples 1 and 3) and compared. […] Half of each sample was analyzed for brightness and particle size distribution.\nMilling caused a measurable increase in the brightness of the bulk powder sample as measured by reflected light. Such an increase is visually apparent as a noticeably brighter powder when compared side-by-side under the GE Brightness test."}, "[2]": {"assay": "Particle size distribution (sieve openings) of acephate technical", "method": "The other half of the Source B sample was analyzed for particle size distribution as received and with the milling according to the invention. FIG. 1 (unmilled) and FIG. 2 (milled) are graphs of the particle size distributions from the milling process. All values are in terms of weight percent of total sample that could pass through the designated sieve opening."}, "[3]": {"assay": "Crystal dimensions by visual inspection", "from_the_text": "The unmilled acephate from example 3 was a commercially available technical grade having elongated cylindrical shaped crystals with an average crystal length of 250-500 μm and an average width of 40-100 μm. In contrast, the acephate powder of example 4 was made of substantially cylindrical shaped crystals with an average crystal length of less than about 150 μm and an average width of less than 40 μm."}}, "note": "Marks after values point to notes of the source that are not given here."}
{"compound": "COP(=O)(NC(C)=O)SC", "note": "(stereo not shown) [Ex. 3, acephate, reference compound]", "values": [{"measurement": "GE Brightness", "setting": "[1]", "result": 90.2}, {"measurement": "Summary Particle Size Distribution, Range", "setting": "[2]; Sieve Size 2.3-3.9 μm, listed as Unmilled", "result": 14.55, "unit": "wt %"}, {"measurement": "Summary Particle Size Distribution, Range", "setting": "[2]; Sieve Size 4.6-16 μm, listed as Unmilled", "result": 33.43, "unit": "wt %"}, {"measurement": "Summary Particle Size Distribution, Range", "setting": "[2]; Sieve Size 4.6-37 μm, listed as Unmilled", "result": 50.51, "unit": "wt %"}, {"measurement": "Summary Particle Size Distribution, Range", "setting": "[2]; Sieve Size 4.6-88 μm, listed as Unmilled", "result": 65.44, "unit": "wt %"}, {"measurement": "Summary Particle Size Distribution, Range", "setting": "[2]; Sieve Size 19-37 μm, listed as Unmilled", "result": 17.08, "unit": "wt %"}, {"measurement": "Summary Particle Size Distribution, Range", "setting": "[2]; Sieve Size 44-88 μm, listed as Unmilled", "result": 14.93, "unit": "wt %"}, {"measurement": "Summary Particle Size Distribution, Range", "setting": "[2]; Sieve Size 105-149 μm, listed as Unmilled", "result": 4.97, "unit": "wt %"}, {"measurement": "Summary Particle Size Distribution, Range", "setting": "[2]; Sieve Size <1.9 μm, listed as Unmilled", "result": 13.27, "unit": "wt %"}, {"measurement": "Summary Particle Size Distribution, Range", "setting": "[2]; Sieve Size <3.9 μm, listed as Unmilled", "result": 27.83, "unit": "wt %"}, {"measurement": "Summary Particle Size Distribution, Range", "setting": "[2]; Sieve Size >105 μm, listed as Unmilled", "result": 6.73, "unit": "wt %"}, {"measurement": "Summary Particle Size Distribution, Range", "setting": "[2]; Sieve Size >177 μm, listed as Unmilled", "result": 1.76, "unit": "wt %"}, {"measurement": "Particle Size Distribution", "setting": "[2]; Size 1.9 μm, listed as Unmilled", "result": 3.6123, "unit": "weight percent"}, {"measurement": "Particle Size Distribution", "setting": "[2]; Size 2.3 μm, listed as Unmilled", "result": 1.6125, "unit": "weight percent"}, {"measurement": "Particle Size Distribution", "setting": "[2]; Size 2.8 μm, listed as Unmilled", "result": 3.3402, "unit": "weight percent"}, {"measurement": "Particle Size Distribution", "setting": "[2]; Size 3.3 μm, listed as Unmilled", "result": 5.0469, "unit": "weight percent"}, {"measurement": "Particle Size Distribution", "setting": "[2]; Size 3.9 μm, listed as Unmilled", "result": 4.5533, "unit": "weight percent"}, {"measurement": "Particle Size Distribution", "setting": "[2]; Size 4.6 μm, listed as Unmilled", "result": 2.9044, "unit": "weight percent"}, {"measurement": "Particle Size Distribution", "setting": "[2]; Size 5.5 μm, listed as Unmilled", "result": 3.2481, "unit": "weight percent"}, {"measurement": "Particle Size Distribution", "setting": "[2]; Size 6.5 μm, listed as Unmilled", "result": 5.7966, "unit": "weight percent"}, {"measurement": "Particle Size Distribution", "setting": "[2]; Size 7.8 μm, listed as Unmilled", "result": 4.6403, "unit": "weight percent"}, {"measurement": "Particle Size Distribution", "setting": "[2]; Size 9.2 μm, listed as Unmilled", "result": 4.2474, "unit": "weight percent"}, {"measurement": "Particle Size Distribution", "setting": "[2]; Size 11 μm, listed as Unmilled", "result": 4.6232, "unit": "weight percent"}, {"measurement": "Particle Size Distribution", "setting": "[2]; Size 13 μm, listed as Unmilled", "result": 4.6531, "unit": "weight percent"}, {"measurement": "Particle Size Distribution", "setting": "[2]; Size 16 μm, listed as Unmilled", "result": 3.3203, "unit": "weight percent"}, {"measurement": "Particle Size Distribution", "setting": "[2]; Size 19 μm, listed as Unmilled", "result": 3.2150, "unit": "weight percent"}, {"measurement": "Particle Size Distribution", "setting": "[2]; Size 22 μm, listed as Unmilled", "result": 3.1651, "unit": "weight percent"}, {"measurement": "Particle Size Distribution", "setting": "[2]; Size 26 μm, listed as Unmilled", "result": 3.7619, "unit": "weight percent"}, {"measurement": "Particle Size Distribution", "setting": "[2]; Size 31 μm, listed as Unmilled", "result": 3.7231, "unit": "weight percent"}, {"measurement": "Particle Size Distribution", "setting": "[2]; Size 37 μm, listed as Unmilled", "result": 3.2123, "unit": "weight percent"}, {"measurement": "Particle Size Distribution", "setting": "[2]; Size 44 μm, listed as Unmilled", "result": 3.0323, "unit": "weight percent"}, {"measurement": "Particle Size Distribution", "setting": "[2]; Size 53 μm, listed as Unmilled", "result": 3.3767, "unit": "weight percent"}, {"measurement": "Particle Size Distribution", "setting": "[2]; Size 63 μm, listed as Unmilled", "result": 3.2501, "unit": "weight percent"}, {"measurement": "Particle Size Distribution", "setting": "[2]; Size 75 μm, listed as Unmilled", "result": 2.8069, "unit": "weight percent"}, {"measurement": "Particle Size Distribution", "setting": "[2]; Size 88 μm, listed as Unmilled", "result": 2.4665, "unit": "weight percent"}, {"measurement": "Particle Size Distribution", "setting": "[2]; Size 105 μm, listed as Unmilled", "result": 2.0819, "unit": "weight percent"}, {"measurement": "Particle Size Distribution", "setting": "[2]; Size 125 μm, listed as Unmilled", "result": 1.5293, "unit": "weight percent"}, {"measurement": "Particle Size Distribution", "setting": "[2]; Size 149 μm, listed as Unmilled", "result": 1.3606, "unit": "weight percent"}, {"measurement": "Particle Size Distribution", "setting": "[2]; Size 177 μm, listed as Unmilled", "result": 0.7768, "unit": "weight percent"}, {"measurement": "Particle Size Distribution", "setting": "[2]; Size 210 μm, listed as Unmilled", "result": 0.4565, "unit": "weight percent"}, {"measurement": "Particle Size Distribution", "setting": "[2]; Size 250 μm, listed as Unmilled", "result": 0.2321, "unit": "weight percent"}, {"measurement": "Particle Size Distribution", "setting": "[2]; Size 298 μm, listed as Unmilled", "result": 0.1849, "unit": "weight percent"}, {"measurement": "Particle Size Distribution", "setting": "[2]; Size <1.9 μm, listed as Unmilled", "result": 9.6625, "unit": "weight percent"}, {"measurement": "Particle Size Distribution", "setting": "[2]; Size >298 μm, listed as Unmilled", "result": 0.1068, "unit": "weight percent"}, {"measurement": "mean particle size", "setting": "[2]; listed as Unmilled", "result": 30.4, "unit": "μm"}, {"measurement": "median particle size", "setting": "[2]; listed as Unmilled", "result": 11.7, "unit": "μm"}, {"measurement": "Summary Particle Size Distribution, Cumul.", "setting": "[2]; up to Sieve Size 2.3-3.9 μm, listed as Unmilled", "result": 27.83, "unit": "wt %"}, {"measurement": "Summary Particle Size Distribution, Cumul.", "setting": "[2]; up to Sieve Size 4.6-16 μm, listed as Unmilled", "result": 61.26, "unit": "wt %"}, {"measurement": "Summary Particle Size Distribution, Cumul.", "setting": "[2]; up to Sieve Size 19-37 μm, listed as Unmilled", "result": 78.34, "unit": "wt %"}, {"measurement": "Summary Particle Size Distribution, Cumul.", "setting": "[2]; up to Sieve Size 44-88 μm, listed as Unmilled", "result": 93.27, "unit": "wt %"}, {"measurement": "Summary Particle Size Distribution, Cumul.", "setting": "[2]; up to Sieve Size 105-149 μm, listed as Unmilled", "result": 98.24, "unit": "wt %"}, {"measurement": "Summary Particle Size Distribution, Cumul.", "setting": "[2]; up to Sieve Size <1.9 μm, listed as Unmilled", "result": 13.27, "unit": "wt %"}, {"measurement": "Summary Particle Size Distribution, Cumul.", "setting": "[2]; up to Sieve Size >177 μm, subject to rounding", "result": "˜100* wt %"}, {"measurement": "Crystal dimensions: length", "setting": "[3]; Table 4, listed as Unmilled", "result": "100-280 μm"}, {"measurement": "Crystal dimensions: width", "setting": "[3]; Table 4, listed as Unmilled", "result": "40-50 μm"}, {"measurement": "Aspect ratio", "setting": "[3]; length:width, listed as Unmilled", "result": "2.5-5.6"}, {"measurement": "average crystal length", "setting": "[3]; visual inspection", "result": "250-500 μm"}, {"measurement": "average width", "setting": "[3]; visual inspection", "result": "40-100 μm"}]}
